Measurements from patent US20240139185A1, “COMPOUNDS THAT PARTICIPATE IN COOPERATIVE BINDING AND USES THEREOF” (Revolution Medicines, Inc., priority 2018, published 2024).
Like-named read-outs stand apart in the source and are kept apart here. Marks after values point to notes of the source that are not given here.

Assays:
[1] = 18-membered ring
[2] = target: T1, BRAF-GTP-KRAS-G12C complex (Homo sapiens, UniProt P01116, G12C); assay: KRAS-BRAF complex disruption TR-FRET without CYPA (presenter dependence); assay type: biochemical
T1 construct: 50 nM of His6-KRas G12C-GTP (1-169)
Experimental: (§1) In this example, TR-FRET was used to measure the compound-facilitated disruption of a KRAS-BRAF complex. A mixture of tagless Cyclophilin A, His6-KRAS G12C-GMP-PNP, and GST-BRAF RAS binding domain was added to a 384-well assay plate containing compounds of the invention and incubated for 3 hours. A mixture of Anti-His Eu-W1024 and anti-GST allophycocyanin was then added and the reaction was incubated for an additional 1.5 hours. TR-FRET signal was read on an EnVision microplate reader (Perkin Elmer, Ex 320 nm, Em 665/615 nm). Compounds that facilitate disruption of a KRAS_BRAF complex were identified as those eliciting a decrease in the TR-FRET ratio relative to DMSO control wells. To determine the presenter-dependence of the compound-mediated KRAS-BRAF complex disruption, Cyclophilin A was left out of the initial incubation (see Table 5). To determine G12C specificity of the compound-mediated KRAS-BRAF complex disruption, wild-type KRAS was used instead of G12C KRAS (see Table 5).
(§2) Reagents and Instrument • Tagless CYPA; 519 μM in PBS buffer, pH 7.4 • GST BRAF; 110 μM in PBS buffer, pH 7.4 • His6-KRASG12C-GMP-PNP; 50 μM in PBS buffer, pH 7.4 • His6-KRASWT-GMP-PNP; 40 μM in PBS buffer, pH 7.4 • Anti-His Eu-W1024 (LANCE® Eu-W1024; Perkin Elmer) • Anti-GST allophycocyanin (Anti-GST IgG conjugated to SureLight®-Allophycocyanin; Perkin Elmer; Product Number AD0059G) • Test compounds, 10 mM in 100% DMSO • EnVision (Perkin Elmer) • Combi MultiDrop liquid dispenser with 8-channel small volume cassette • 384-well ProxiPlate (black)
(§3) Experimental Protocol • 1. Use Mosquito to dispense 100 nL/well of compounds (varying concentration in […]) into 384-well black ProxiPlate to make assay-ready-plate (ARP). • 2. Make assay buffer containing 25 mM Hepes pH 7.3, 100 mM NaCl, 5 mM MgCl2, 0.05% BSA, and 0.002% Tween-20. • 3. Make PRE-MIX A: delivers final concentrations of 50 nM of His6-KRas G12C-GTP (1-169) and 500 nM of tagless CypA (1-165) in assay buffer. • a. […] Read on EnVision (Ex: 320 nm; Em1: 615 nm; Em2: 665 nm). • 8. […]

cyclophilin A (CYPA) = cyclophilin A (CYPA) (Homo sapiens, UniProt P62937); assay: CYPA-compound binary complex formation by SPR; details: read-out: CYPA Binding Affinity
Procedure, shortened: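 Steady-state fit of SPR responses gave binding affinity. Analyte series: 50 μM downward, 2-fold, 10 points, running buffer HBS-P+ (0.05% Tween20, pH7.4, 2% DMSO), 60 s on/60 s off. Surface: biotinylated CypA-Avi captured at 4 μg/ml against a reference cell, regenerated with NaOH/guanidine.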

[3] = target: T2, BRAF-GTP-KRAS-G12C complex (Homo sapiens, UniProt P01116+P62937, G12C); assay: KRAS-BRAF complex disruption through competition with CYPA-compound by TR-FRET; details: biochemical BRAF-KRAS G12C-GTP disruption assay EC50, with CYPA
T2 construct: 50 nM of His6-KRas G12C-GTP (1-169); 500 nM of tagless CypA (1-165)
Procedure, shortened: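 Compound-driven loss of KRAS–BRAF RBD TR-FRET signal, Eu-anti-His/APC-anti-GST pair (10/50 nM, 1.5 h), following a 3 h room-temperature preincubation of 50 nM His6-KRAS G12C-GTP and 500 nM CypA in 25 mM Hepes pH 7.3 buffer. EC50 by 4-parameter fit. Variants used wild-type KRAS in place of G12C or no CypA.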

BRAF-GTP-KRASWT complex = target: T3, BRAF-GTP-KRASWT complex (Homo sapiens, UniProt P01116+P62937); assay: KRAS-BRAF complex disruption TR-FRET with wild-type KRAS (G12C specificity); assay type: biochemical; details: with CYPA
T3 construct: substitute His6-KRas WT-GTP (1-169) for His6-KRas G12C-GTP (1-169); 500 nM of tagless CypA (1-165)
Experimental: as §1, §2, §3

KRAS-G12C = target: T4, KRAS-G12C (Homo sapiens, UniProt P01116+P62937, G12C); assay: Percentage of crosslinking to KRAS-G12C in the presence of BME and CYPA (TOF-MS); assay type: biochemical; details: 60 minute incubation; compound 2 μM, CypA 5 μM, G12C-GMPNP 0.5 μM, BME
T4 construct: CypA 1-165 (final concentration 5 μM)
Experimental: • 1. 10×Incubation buffer: 125 mM HEPES pH 7.4, 750 mM NaCl, 10 mM MgCl2 • 2. 50 μM Protein A stock (CypA) in incubation buffer • 3. 5 μM Protein B (G12C-GMPNP) stock in incubation buffer • 4. 20 μM compound stock in 1×Incubation buffer with 10% DMSO • 5. 25 mM BME stock solution (prepared by diluting the BME stock in Milli Q water)
CypA 1-165 (final concentration 5 μM), test compound (final concentration 2 μM) and G12C-GMPNP (final concentration 0.5 μM) were incubated in the incubation buffer ([…]) for the requisite amount of time at room temperature. The samples were quenched with formic acid, final concentration 0.5%. 10 μL aliquots were injected to TOF-MS.
Sequence of Addition for a Final Incubation Volume of 50 μL • 1. 5 μL 10×incubation buffer • 2. 28 ul H2O • 3. 2 μL from 25 mM BME stock • 4. 5 μL CypA at 50 uM • 5. 5 μL from 5 μM G12C-GMPNP • 6. 5 μL compound from 20 μM compound stock
LC-MS is performed on an Agilent 6230 TOF-LC mass spectrometer equipped with an electrospray probe operated in positive ionization mode. 10 μL samples are injected on a Sepax Bio-C4, 300 Å, 2.1×100 mm column. The mobile phase is 0.1% (vol/vol) formic acid and 0.1% 1 mM ammonium formate in 95% water, 4.8% acetonitrile (A) and 0.1% (vol/vol) formic acid and 0.1% 1 mM ammonium formate in 95% acetonitrile and 4.8% water (B). The separation is performed by a 9 min total gradient consisting of 5 min linear gradient from 25% to 50% B, and a wash at 100% B for 1.25 min, all at a flow rate of 0.6 mL/min (see attached timetable below). Mass spectrometer source conditions were capillary voltage, 4,000 V; cone voltage, 120 V; source temperature, 275° C.; scan range, 100-2,000 a.m.u. with a cycle time of 1 s.
The observed mass is generated by averaging the major peak in the total ion current (TIC). The charge-state series of the species are deconvoluted using Agilent MassHunter Bioconfirm using maximum entropy setting (range is set to 17000-23000 Da). […]

With CC(C)[Si](Oc1cc2cc(c1)-c1ccc3c(Br)cn(c3c1)C[C@H](C)COC(=O)[C@@H]1CCCN(N1)C(=O)[C@@H](NC(=O)OC(C)(C)C)C2)(C(C)C)C(C)C the ring closure, isolated yield ([1]; from CC(C)[Si](Oc1cc(C[C@H](NC(=O)OC(C)(C)C)C(=O)N2CCC[C@@H](C(=O)O)N2)cc(-c2ccc3c(Br)cn(C[C@H](C)CO)c3c2)c1)(C(C)C)C(C)C, ester bond, EDCI/HOBt/DIEA, DCM, 122.5 mM, 25.0 °C, 16.0 h) was 59%.

CC(C)[Si](Oc1cc2cc(c1)-c1ccc3c(C#N)cn(c3c1)CC(C)(C)CNC(=O)[C@@H]1CCCN(N1)C(=O)[C@@H](NC(=O)OC(C)(C)C)C2)(C(C)C)C(C)C showed a ring closure, isolated yield ([1]; from CC(C)[Si](Oc1cc(C[C@H](NC(=O)OC(C)(C)C)C(=O)N2CCC[C@@H](C(=O)NCC(C)(C)Cn3cc(C#N)c4ccc(Br)cc43)N2)cc(B2OC(C)(C)C(C)(C)O2)c1)(C(C)C)C(C)C, cc_pd bond, Pd(dppf)Cl2.CH2Cl2/K2CO3, dioxane/H2O 5:1, 22.9 mM, 80.0 °C, 2.0 h) of 53%.

For CC(C)[C@@H](C(=O)N[C@H]1Cc2cc(O)cc(c2)-c2ccc3nc(-c4cccnc4)n(c3c2)CCCOC(=O)[C@@H]2CCCN(N2)C1=O)N(C)C(=O)C1CN(C(=O)CCl)C1 [Compound 169], the IC50 [2] was > 30 µM, the Kd (cyclophilin A (CYPA)) was ≤ 5 µM and the EC50 [3] was 0.5 to 5 µM. The IC50 (BRAF-GTP-KRASWT complex) was > 30 µM and the “% Crosslinking with KRAS-G12C-GTP in presence of CYPA” value (KRAS-G12C) was 39^‡ %.
